What was measured:
SKOV-3 [1] = assay: LDH release assay, SKOV-3; format: cell-based; settings: Homo sapiens; for IC50: SK-OV-3, 24 h, CalcuSyn
Description: (§1) As per LDH release, the measurements were performed using the commercially available Pierce LDH Cytotoxicity Assay Kit (Pierce Biotechnology, Rockford, IL, USA). In this assay, cells with damaged plasma membranes release LDH into the culture environment; then the enzyme catalyses the conversion of lactate to pyruvate, which is accompanied by a reduction of NAD^+ to NADH. Afterwards, diaphorase uses NADH to reduce a tetrazolium salt to a formazan whose level is proportional to LDH activity. The absorbance emitted by the formazan was monitored at 490 nm with a reference wavelength of 680 nm.
(§2) In order to examine the effect of 3,3′,4,4′-THS on the viability of ovarian cancer cells and to compare its activity with RVT, subconfluent cultures of A2780, OVCAR-3, and SKOV-3 cells were subjected to a wide range of stilbene concentrations (0–500 μM) for 24 h; then MTT and LDH release assays were performed.

catalase (CAT) [2] = assay: CAT activity, A2780; format: cell-based, human; settings: 24 h, 10, 50, 100 μM tested
Description: (§3) Total activity of superoxide dismutase (SOD) was measured in cell lysates with a commercially available kit (R&D Systems Europe, Abingdon, UK), while the activity of catalase (CAT) was estimated by using the OxiSelect Catalase Activity Assay Kit (Cell Biolabs Inc., San Diego, CA, USA). Both assays were performed according to the manufacturer's instructions.

HOSE cells = assay: MTT viability assay, HOSE cells; format: cell-based, human; settings: 24 h; for IC50: Homo sapiens, CalcuSyn; for concentration up to which viability was unchanged: cytotoxicity tests (MTT and LDH release)
Description: (§4) Cell viability was assessed with the MTT test and with lactate dehydrogenase (LDH) release assay. As per the MTT method, normal and cancer cells were seeded into 96-well plates at high density and allowed to attach overnight. Then they were incubated in a medium containing 1.25 mg/mL of the MTT salt [3-(4,5-dimethylthiazol-2-yl)-2,5-diphenyltetrazolium bromide] for 24 h at 37°C. The generated formazan was solubilized with 20% sodium dodecyl sulphate and 50% N,N-dimethylformamide. Absorbance of the converted dye was recorded at 595 nm with a reference wavelength of 690 nm.
as §2

SKOV-3 cells = assay: Oxidative DNA damage (8-OH-dG immunoassay), SKOV-3; format: cell-based, human; settings: 24 h, 10, 50, 100 μM tested
Description: (§5) Oxidative DNA damage was assessed by measuring the 8-OH-dG concentration with a competitive immunoassay (Cell Biolabs Inc.), as per manufacturer's instructions. The efficiency of 8-OH-dG repair was estimated after cell recovery for 24 h in standard growth medium. In order to examine the activity of DNA glycosylase I, reverse transcription PCR was performed. RNA extraction was carried out using the RNA Bee (Tel-Test, Friendswood, Texas, USA) and purified according to the manufacturer's protocol. One microgram of RNA was reverse transcribed into cDNA with random hexamer primers, and cDNA was subjected to PCR. The profile of the replication cycles was denaturation at 94°C for 50 s, annealing at 58°C for 50 s, and polymerization at 72°C for 1 min. In each reaction, the expression of glyceraldehyde-3-phosphate dehydrogenase (GAPDH) served as the internal control. The primers used for PCR were as follows: hOGG1 forward, 5′-[…]-3′; hOGG1 reverse, 5′-TAGCCCGCCCTGTTCTTC-3′ designed to amplify a 551-bp region; GAPDH forward, 5′-CCATGGAGAAGGCTGGGG-3′; and GAPDH reverse 5′-[…]-3′ designed to amplify a 194-bp region (total number of cycles: 28). The PCR products were separated on 3% agarose gels stained with ethidium bromide and then visualized.

HPMCs = assay: Oxidative DNA damage (8-OH-dG immunoassay), HPMCs; format: cell-based, human; settings: 24 h, percentage of control cells
Description: as §5

[3] = test system: superoxide dismutase (SOD); assay: SOD activity in cell lysates, SKOV-3; format: cell-based, human; settings: 24 h, 10, 50, 100 μM tested
Description: as §3

A2780 [4] = assay: LDH release assay, A2780; format: cell-based; settings: Homo sapiens, 24 h; for IC50: CalcuSyn
Description: as §1, §2

p38 MAPK [5] = assay: p38 MAPK activation (FACE ELISA), HPMCs; format: cell-based, human; settings: 24 h, percentage of control cells
Description: (§6) Activation of p38 MAPK was examined using the Fast Activated Cell-Based ELISA (FACE) p38 kit (Active Motif) according to the manufacturer's instructions. In brief, cells were fixed with 4% formaldehyde and incubated with a primary antibody that recognizes either phosphorylated p38 or total p38 overnight at 4°C. Then the cells were washed and incubated with a secondary HRP-conjugated antibody for 1 h at room temperature. The color reaction that developed was read using a spectrofluorometer at 450 nm wavelength.
(§7) The results were expressed as a ratio of phosphorylated to total p38 activity.

A2780 [6] = assay: MTT viability assay, A2780; format: cell-based; settings: Homo sapiens, 24 h
Description: as §4, §2

SKOV-3 [7] = assay: MTT viability assay, SKOV-3; format: cell-based; settings: Homo sapiens; for IC50: SK-OV-3, 24 h
Description: as §4, §2

[8] = test system: superoxide dismutase (SOD); assay: SOD activity in cell lysates, A2780; format: cell-based, human; settings: 24 h, 10, 50, 100 μM tested
Description: as §3

catalase (CAT) [9] = assay: CAT activity, SKOV-3; format: cell-based, human; settings: 24 h, 10, 50, 100 μM tested
Description: as §3

OVCAR-3 cells = assay: Apoptosis (Hoechst 33258), OVCAR-3; format: cell-based, human; settings: 24 h, 10, 50, 100 μM tested
Description: (§8) Identification of apoptosis was based on the presence of DNA condensation in cells stained with a fluorescent dye, Hoechst 33258 (Molecular Probes, Eugene, OR). Cells were grown on Lab-Tek Chamber Slides (Nunc, Roskilde, Denmark), fixed with 4% formaldehyde for 10 min and washed twice with PBS. Then the cells were incubated with Hoechst 33258 (0.1 μg/mL) for 5 min in the dark. After washing with PBS, stained nuclei were observed and counted under a Zeiss Axio Observer D1 fluorescence microscope (Carl Zeiss, Jena, Germany). The activity of caspases 3, 8, and 9 was quantified in the cell lysates using specific colorimetric kits (Abcam, Cambridge, UK) according to the manufacturer's instructions.

[10] = test system: superoxide dismutase (SOD); assay: SOD activity in cell lysates, OVCAR-3; format: cell-based, human; settings: 24 h, 10, 50, 100 μM tested
Description: as §3

A2780 cells = assay: Apoptosis (Hoechst 33258), A2780; format: cell-based, human; settings: 24 h, 10, 50, 100 μM tested
Description: as §8

p38 MAPK [11] = assay: p38 MAPK activation (FACE ELISA), OVCAR-3; format: cell-based, human; settings: 24 h, 10, 50, 100 μM tested
Description: as §6, §7

catalase (CAT) [12] = assay: CAT activity, OVCAR-3; format: cell-based, human; settings: 24 h, 10, 50, 100 μM tested
Description: as §3

[13] = SK-OV-3, 10 μM, 24 h, percentage of control cells
[14] = SK-OV-3, 50 μM, 24 h, percentage of control cells
[15] = SK-OV-3, 100 μM, 24 h, percentage of control cells
[16] = 10 μM, percentage of control cells
[17] = 50 μM, percentage of control cells
[18] = 100 μM, percentage of control cells
[19] = CalcuSyn, read-out: IC50, MTT assay
[20] = read-out: IC50 (range over MTT and LDH release assays)

SMILES | IC50 (SKOV-3 [1]) [µM] | CAT activity, effect in words (catalase (CAT) [2]) | IC50 (HOSE cells) [µM] | concentration up to which viability was unchanged (HOSE cells) [µM] | concentration of 8-OH-dG (oxidative DNA damage), effect in words (SKOV-3 cells) | 8-OH-dG (HPMCs; 10 μM) | 8-OH-dG (HPMCs; 50 μM) | 8-OH-dG (HPMCs; 100 μM) | SOD activity, effect in words [3] | IC50 (A2780 [4]) [µM] | p38 MAPK (p38 MAPK [5]; 10 μM) | p38 MAPK (p38 MAPK [5]; 50 μM) | p38 MAPK (p38 MAPK [5]; 100 μM) [%] | IC50 (A2780 [6]; [19]) [µM] | IC50 (SKOV-3 [7]; [19]) [µM] | SOD activity, effect in words [8] | CAT activity, effect in words (catalase (CAT) [9]) | incidence of apoptosis (rise in percentage of death cells), effect in words (OVCAR-3 cells) | SOD activity, effect in words [10] | incidence of apoptosis (rise in percentage of death cells), effect in words (A2780 cells) | also measured
Oc1ccc(/C=C/c2ccc(O)c(O)c2)cc1O [3,3′,4,4′-THS, 3,3′,4,4′-tetrahydroxy-trans-stilbene] | 10 | did not change CAT activity | 502 | ≤ 400 | increasing the concentration of 8-OH-dG in the OVCAR-3 and SKOV-3 cells starting from a dose of 10 μM | 91 ± 2^∗# % | 88 ± 3^∗# % | 76 ± 3^∗# % | downregulated it at 50 and 100 μM | 6 | 82 ± 3^∗# % | 81 ± 6^∗# % | 104 ± 2 | 4 | 8 | increased SOD at 10 μM and decreased the activity of the enzyme at 50 and 100 μM | downregulated it in the SKOV-3 cells at 50 and 100 μM | evident starting from the lowest concentration of 10 μM | increased SOD at 10 μM and decreased the activity of the enzyme at 50 and 100 μM | evident starting from the lowest concentration of 10 μM | viability at 10 µM (SKOV-3 [1]; [13]): 50 ± 2%; viability at 50 µM (SKOV-3 [1]; [14]): 32 ± 12%; viability at 100 µM (SKOV-3 [1]; [15]): 24 ± 7%; viability at 10 µM (A2780 [4]; [16]): 42 ± 3%; viability at 50 µM (A2780 [4]; [17]): 26 ± 3%; viability at 100 µM (A2780 [4]; [18]): 22 ± 3%; viability at 10 µM (A2780 [6]; [16]): 20 ± 3%; viability at 50 µM (A2780 [6]; [17]): 14 ± 3%; viability at 100 µM (A2780 [6]; [18]): 13 ± 3%; IC50 (A2780 [6]; [20]): 4 to 6 µM; viability at 10 µM (SKOV-3 [7]; [13]): 40 ± 2%; viability at 50 µM (SKOV-3 [7]; [14]): 39 ± 4%; viability at 100 µM (SKOV-3 [7]; [15]): 35 ± 2%; IC50 (SKOV-3 [7]; [20]): 8 to 10 µM; p38 MAPK activity (phosphorylated/total), effect in words (p38 MAPK [11]): exerted upregulatory activity at 50 and 100 μM; CAT activity, effect in words (catalase (CAT) [12]): upregulated it in the OVCAR-3 cells at 10 μM, reduced it at 50 and 100 μM
Oc1ccc(/C=C/c2cc(O)cc(O)c2)cc1 [RVT, 3,4′,5-trihydroxy-trans-stilbene, reference compound] | 346 | stimulated the enzyme at 10 μM in the OVCAR-3 cells, at 50 μM in the A2780, OVCAR-3, and SKOV-3 cells, and at 100 μM in the OVCAR-3 and SKOV-3 cells | 485 | ≤ 400 | induced DNA injury in A2780 and SKOV-3 at 50 and 100 μM | 103 ± 3% | 103 ± 2% | 102 ± 5% | failed to affect SOD activity | 65 | 113 ± 16% | 103 ± 2% | 105 ± 7 | 48 | 380 | upregulated activity of the enzyme | stimulated the enzyme at 10 μM in the OVCAR-3 cells, at 50 μM in the A2780, OVCAR-3, and SKOV-3 cells, and at 100 μM in the OVCAR-3 and SKOV-3 cells | at 100 μM for the OVCAR-3 cells | upregulated activity of the enzyme | exhibiting its impact at concentrations of 50 and 100 μM for the A2780 and SKOV-3 cells | p38 MAPK activity (phosphorylated/total), effect in words (p38 MAPK [11]): failed to activate p38 MAPK; CAT activity, effect in words (catalase (CAT) [12]): stimulated the enzyme at 10 μM in the OVCAR-3 cells, at 50 μM in the A2780, OVCAR-3, and SKOV-3 cells, and at 100 μM in the OVCAR-3 and SKOV-3 cells
